This is an account of results in PubChem BioAssay AID1199 (EPA DSSTox, 2008).

The subject of the data set is mouse carcinogenicity bioassay, TD50 from CPDB. As to the kind of experiment: DSSTox (CPDBAS) Carcinogenic Potency Database Summary Mouse Bioassay Results. Summed up:
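Chronic long-term mouse cancer bioassays from literature and NCI/NTP, compiled per sex. TD50 is the standardized carcinogenic potency, using the most positive experiment per sex-species; target sites follow author opinion.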

Where [1] appears, read: TD50_Mouse_Note: no positive results, TargetSites_Mouse_Female: no positive results.
Setting [2] is: TD50_Mouse_Note: no positive results.
The mark [3] stands for this setting: TD50_Mouse_Note: TD50 is harmonic mean of more than one positive test, TargetSites_Mouse_Female: liver.
Where [4] appears, read: TD50_Mouse_Note: TD50 value is overestimated as upper 99% confidence limit from study with 100% tumor incidence but no lifetable, harmoni.

Activity calls are given as the source filed them.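 How the source made its calls: active means a tumour-causing dose and a tumour site recorded for mice in at least one sex group; inconclusive means only government mouse studies exist and were judged inadequate; inactive means mouse studies exist but none gave tumours.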

`O=S(=O)([O-])[O-].[Cd+2]`: the result under setting [1] was inactive.
Still for that read-out and setting: the value for `Cc1c(N)cccc1N` was “inactive; no positive results”; that for `CC(=O)[O][Sn]([c]1ccccc1)([c]1ccccc1)[c]1ccccc1` was “inactive; no positive results”.
For `CCCCCCCCCCCCCCCC(=O)OC/C=C(C)/C=C/C=C(C)/C=C/C1=C(C)CCCC1(C)C`, the outcome under setting [2] is “inactive; no positive results”.
Regarding `O=C1C(Cl)=C(Cl)C(=O)c2ccccc21`, the outcome under setting [1] was “inactive; no positive results”.
For `CN(C)c1ccc(C(=N)c2ccc(N(C)C)cc2)cc1`, the Potency under setting [3] was 0.206 mmol/kg/day.
With `FCC(F)(F)F`, the outcome under setting [1] was “inactive; no positive results”.
Turning to `ClC1C(Cl)C(Cl)C(Cl)C(Cl)C1Cl` (centres undefined), the Potency is 0.0956 mmol/kg/day under setting [3]; 0.106 mmol/kg/day (TD50_Mouse_Note: TD50 is harmonic mean of more than one positive test, TargetSites_Mouse_Female: liver, lung); 0.0509 mmol/kg/day (TD50_Mouse_Note: TD50 is harmonic mean of more than one positive test, harmonic mean of TD50 includes a value for upper 99% confidence li, TargetSites_Mouse_Female: liver); 0.0228 mmol/kg/day under setting [4].
On to `OCCO`, for which, under setting [1], the outcome was “inactive; no positive results”.
For `CNC[C@H](O)c1ccc(O)c(O)c1`, under “TD50_Mouse_Note: only experiment is NCI/NTP bioassay inadequate, TargetSites_Mouse_Female: NTP bioassay inadequate”, the outcome is reported as “ntp bioassay inadequate”.
`CCCCOCCOCCOCc1cc2c(cc1CCC)OCO2`: under setting [3], the Potency was 0.86 mmol/kg/day. The outcome under setting [1] is “inactive; no positive results”.
Consider `Cn1cc(C(=O)O)c(=O)c2ccc(/C=C/c3ccc([N+](=O)[O-])o3)nc21`, for which the Potency (TargetSites_Mouse_BothSexes: hematopoietic system, lung, stomach) is 0.0212 mmol/kg/day.
As to `CC(I)C1OCC(CO)O1` (centres undefined), the Potency (TargetSites_Mouse_Female: harderian gland, pituitary gland) is 0.535 mmol/kg/day.
For the molecule `[Se]`, the outcome under setting [2] was inactive.
With `CCCCCCCCCCCCN=C(N)N`, the outcome under setting [1] was “inactive; no positive results”.
Consider `CC(=O)Nc1ccc2c(c1)Cc1ccccc1-2`, for which, where the note is “TD50_Mouse_Note: TD50 is harmonic mean of more than one positive test, greater than ten-fold variation among TD50 values for positive res, TargetSites_Mouse_Female: liver, urinary bladder”, the Potency is 0.034 mmol/kg/day.
Regarding `Nc1nc(/C=C/c2ccc([N+](=O)[O-])o2)no1`, the Potency (TD50_Mouse_Note: TD50 is harmonic mean of more than one positive test, TargetSites_Mouse_Female: hematopoietic system, stomach) is 0.504 mmol/kg/day.
Regarding `CCN(Cc1cccc(S(=O)(=O)O)c1)c1ccc(C(=C2C=CC(=[N+](CC)Cc3cccc(S(=O)(=O)[O-])c3)C=C2)c2ccc(S(=O)(=O)O)cc2)cc1`, the outcome under setting [1] was “inactive; no positive results”.
Take `c1ccoc1`: the Potency (TD50_Mouse_Note: TD50 is harmonic mean of more than one positive test, TargetSites_Mouse_Female: adrenal gland, liver) is 0.04 mmol/kg/day.
`O=Cc1ccco1`: the Potency under setting [3] was 2.05 mmol/kg/day.
Consider `Cc1cccc(Nc2cc(Cl)nc(SCC(=O)O)n2)c1C`, for which the Potency under setting [4] was 0.0334 mmol/kg/day.
Turning to `C=COC(C)=O`, where the note is “TargetSites_Mouse_Female: esophagus, oral cavity, stomach, uterus”, the Potency was 45.5 mmol/kg/day.
In the case of `Brc1cc(Br)c(-c2c(Br)c(Br)c(Br)c(Br)c2Br)c(Br)c1Br`, the Potency under setting [3] was 0.00418 mmol/kg/day.
Turning to `CCN(Cc1cccc(S(=O)(=O)[O-])c1)c1ccc(C(=C2C=CC(=[N+](C)C)C=C2)c2ccc(N(CC)Cc3cccc(S(=O)(=O)O)c3)cc2)cc1`, under setting [1], the outcome is “inactive; no positive results”.
With `NC(=O)CCCCC(N)=O`, under setting [1], the outcome is “inactive; no positive results”.
With `Cc1c(COC(=O)C2C(/C=C(\Cl)C(F)(F)F)C2(C)C)cccc1-c1ccccc1` (centres undefined), the outcome under setting [1] was “inactive; no positive results”.
Turning to `O=C1CN(/N=C/c2ccc([N+](=O)[O-])o2)C(=O)N1`, the Potency (TargetSites_Mouse_Female: ovary) is 5.88 mmol/kg/day.
For the molecule `O=[N+]([O-])c1cc([N+](=O)[O-])c(Cl)c(Cl)c1Cl`, the outcome under setting [1] was “inactive; no positive results”.
For `C/C=C/Cl`, the Potency (TargetSites_Mouse_Female: stomach) is 0.066 mmol/kg/day.
As to `Clc1cc2c(cc1Cl)Oc1cc(Cl)c(Cl)cc1O2`, the Potency (TD50_Mouse_Note: TD50 is harmonic mean of more than one positive test, TargetSites_Mouse_Female: liver, thyroid gland) is 4.85e-07 mmol/kg/day.
Regarding `C[N+](C)(C)CCO`, under setting [2], the outcome is “inactive; no positive results”.
Consider `Nc1ccc(Oc2ccc(N)c(N)c2)cc1`, for which the Potency is 0.0618 mmol/kg/day.
Regarding `CC(=O)OC[C@]12C[C@H](OC(=O)CC(C)C)C(C)=C[C@H]1O[C@@H]1[C@H](O)[C@@H](OC(C)=O)[C@@]2(C)C12CO2` (some centres undefined), the Potency (TargetSites_Mouse_Female: no positive results) is 0.00189 mmol/kg/day.
As for `Nc1ccccc1-c1ccccc1`, the Potency (TargetSites_Mouse_Female: vascular system) is 5.45 mmol/kg/day.
For `O=[N+]([O-])c1ccc(Cl)c([N+](=O)[O-])c1`, the outcome under setting [1] was “inactive; no positive results”.
Still for that read-out and setting: the value for `Oc1cccc(O)c1` was “inactive; no positive results”; that for `NC(=O)c1ccncc1` was “inactive; no positive results”.
In the case of `OCCN(CCO)C(=S)S`, the Potency (TD50_Mouse_Note: TD50 is harmonic mean of more than one positive test, TargetSites_Mouse_Female: no positive results) is 0.172 mmol/kg/day.
For the molecule `Nc1ccc(S(=O)(=O)c2ccc(N)cc2)cc1`, under setting [1], the outcome was “inactive; no positive results”.
Still for that read-out and setting: the entry for `CNc1ncnc2nc[nH]c12` is “inactive; no positive results”.
